Results on 25 compounds are retold here after patent US9452986B2, “6-heteroaryloxy- or 6-aryloxy-quinoline-2-carboxamides and method of use” (AbbVie Inc., priority 2014, dated 2016).

Molecules are shown by their SMILES. pIC50: −log10 of the molar value. Bounds are passed on as bounds.

For orientation: pIC50 means the negative decadic logarithm of the IC50, by convention in mol/L.

recombinant human Nav1.7, sequence (Q15858 whole entry): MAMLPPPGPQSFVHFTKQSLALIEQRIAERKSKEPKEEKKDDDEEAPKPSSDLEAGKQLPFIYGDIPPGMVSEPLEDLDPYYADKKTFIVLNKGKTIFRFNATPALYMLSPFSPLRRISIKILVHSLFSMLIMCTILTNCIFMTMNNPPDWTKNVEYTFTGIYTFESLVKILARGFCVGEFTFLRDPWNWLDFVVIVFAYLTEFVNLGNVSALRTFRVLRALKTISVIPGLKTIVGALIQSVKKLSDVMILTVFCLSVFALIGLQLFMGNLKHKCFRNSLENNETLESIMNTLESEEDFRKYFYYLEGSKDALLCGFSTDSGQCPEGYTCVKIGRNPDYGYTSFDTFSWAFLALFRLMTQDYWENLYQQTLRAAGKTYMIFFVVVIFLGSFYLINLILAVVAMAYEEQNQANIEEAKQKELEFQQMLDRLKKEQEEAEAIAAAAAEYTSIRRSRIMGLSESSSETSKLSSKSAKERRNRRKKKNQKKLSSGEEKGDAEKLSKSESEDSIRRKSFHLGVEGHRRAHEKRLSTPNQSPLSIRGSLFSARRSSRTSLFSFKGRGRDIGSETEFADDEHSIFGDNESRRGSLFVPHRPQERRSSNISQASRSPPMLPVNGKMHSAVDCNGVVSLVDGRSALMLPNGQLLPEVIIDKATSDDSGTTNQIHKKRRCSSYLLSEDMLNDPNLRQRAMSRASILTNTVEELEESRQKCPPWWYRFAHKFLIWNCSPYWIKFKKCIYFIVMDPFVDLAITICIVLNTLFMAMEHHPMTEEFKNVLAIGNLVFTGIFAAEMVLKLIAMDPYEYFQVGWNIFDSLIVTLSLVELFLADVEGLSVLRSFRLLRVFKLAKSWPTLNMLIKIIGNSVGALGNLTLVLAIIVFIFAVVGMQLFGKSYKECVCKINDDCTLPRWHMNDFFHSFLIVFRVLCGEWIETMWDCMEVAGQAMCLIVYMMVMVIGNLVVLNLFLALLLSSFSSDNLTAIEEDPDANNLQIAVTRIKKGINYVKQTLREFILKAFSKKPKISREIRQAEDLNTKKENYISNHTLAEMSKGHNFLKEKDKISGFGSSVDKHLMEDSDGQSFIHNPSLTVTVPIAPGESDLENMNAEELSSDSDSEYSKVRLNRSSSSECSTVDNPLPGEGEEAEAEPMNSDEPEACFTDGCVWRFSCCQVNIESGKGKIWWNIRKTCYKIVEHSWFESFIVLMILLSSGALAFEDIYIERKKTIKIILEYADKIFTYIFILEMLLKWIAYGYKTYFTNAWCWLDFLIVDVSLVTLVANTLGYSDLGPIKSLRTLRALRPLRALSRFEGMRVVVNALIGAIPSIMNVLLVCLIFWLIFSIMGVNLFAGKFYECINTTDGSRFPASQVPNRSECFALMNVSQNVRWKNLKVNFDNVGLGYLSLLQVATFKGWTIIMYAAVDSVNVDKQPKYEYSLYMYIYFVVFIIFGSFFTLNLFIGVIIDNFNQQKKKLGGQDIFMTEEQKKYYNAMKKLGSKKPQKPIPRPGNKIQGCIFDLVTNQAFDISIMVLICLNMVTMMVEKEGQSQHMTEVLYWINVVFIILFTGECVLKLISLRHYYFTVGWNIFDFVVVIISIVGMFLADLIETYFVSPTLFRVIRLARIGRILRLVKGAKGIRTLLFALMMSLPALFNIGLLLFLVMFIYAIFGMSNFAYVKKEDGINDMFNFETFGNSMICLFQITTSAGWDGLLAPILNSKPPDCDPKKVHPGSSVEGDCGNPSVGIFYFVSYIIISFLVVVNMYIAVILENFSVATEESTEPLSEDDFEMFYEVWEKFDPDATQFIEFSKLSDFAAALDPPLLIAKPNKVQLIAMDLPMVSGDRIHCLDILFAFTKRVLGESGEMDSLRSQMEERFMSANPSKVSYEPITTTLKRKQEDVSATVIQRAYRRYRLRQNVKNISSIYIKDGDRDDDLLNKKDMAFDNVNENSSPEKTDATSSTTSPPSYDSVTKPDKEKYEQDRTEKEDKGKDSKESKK

The first experiment deals with recombinant human Nav1.7 (Homo sapiens (Human), UniProt Q15858). Kind of experiment: FRET-based membrane potential assay, recombinant human sodium channel Nav1.7. The experiment is classed as cell-based. Particulars: HEK293 cells stably expressing recombinant human Nav1.7; veratridine + scorpion venom depolarization; read-out: FRET-Membrane Potential Nav1.7 IC50. In short, it runs like this:
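Channel activation used veratridine at its EC80, set by a dilution curve each experiment, together with Leiurus scorpion venom, added 3 min after compound. Membrane-potential ratio signals from FLIPR Tetra in HEPES-buffered HBSS were fitted to a four-parameter Hill equation for percent inhibition and IC50.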
`O=C(c1ccc2cc(Oc3ccc(C(F)(F)F)cn3)ccc2n1)N1CCC(F)(F)CC1` [Example 330, (4,4-difluoropiperidin-1-yl)(6-{[5-(trifluoromethyl)pyridin-2-yl]oxy}quinolin-2-yl)methanone]: the pIC50 is 5.53.

As to `O=C(c1ccc2cc(Oc3ccc(C(F)(F)F)cn3)ccc2n1)N1CCN(S(=O)(=O)CCC(F)(F)F)CC1` [Example 332, (6-{[5-(trifluoromethyl)pyridin-2-yl]oxy}quinolin-2-yl) {4-[(3,3,3-trifluoropropyl)sulfonyl]piperazin-1-yl}methanone], the pIC50 was 5.00. `O=C(c1ccc2cc(Oc3ccc(C(F)(F)F)cn3)ccc2n1)N1CCN2C(=O)OC[C@H]2C1` [Example 333, (8aR)-7-[(6-{[5-(trifluoromethyl)pyridin-2-yl]oxy}quinolin-2-yl)carbonyl]hexahydro[1,3]oxazolo[3,4-a]pyrazin-3-one]: the pIC50 is below 4.70.

For `CC(C)(O)CCNC(=O)c1ccc2cc(Oc3ccc(C(F)(F)F)cn3)ccc2n1` [Example 334, N-(3-hydroxy-3-methylbutyl)-6-{[5-(trifluoromethyl)pyridin-2-yl]oxy}quinoline-2-carboxamide], the negative-log IC50 (pIC50) is 5.46.

In the case of `O=C(NC[C@H]1CCCN1)c1ccc2cc(Oc3ccc(C(F)(F)F)cn3)ccc2n1` [Example 335, N-[(2R)-pyrrolidin-2-ylmethyl]-6-{[5-(trifluoromethyl)pyridin-2-yl]oxy}quinoline-2-carboxamide], the pIC50 is 6.24. On the same count and under the same terms, with `O=C(NCC1(O)CCC1)c1ccc2cc(Oc3ccc(C(F)(F)F)cn3)ccc2n1` [Example 336, N-[(1-hydroxycyclobutyl)methyl]-6-{[5-(trifluoromethyl)pyridin-2-yl]oxy}quinoline-2-carboxamide] the figure was 6.36; with `NCCNC(=O)c1ccc2cc(Oc3ccc(C(F)(F)F)cn3)ccc2n1` [Example 338, N-(2-aminoethyl)-6-{[5-(trifluoromethyl)pyridin-2-yl]oxy}quinoline-2-carboxamide], 6.01. Same read-out and setting: with `O=C(c1ccc2cc(Oc3ccc(C(F)(F)F)cn3)ccc2n1)N1CCOC(CO)C1` (stereo not shown) [Example 339, [2-(hydroxymethyl)morpholin-4-yl](6-{[5-(trifluoromethyl)pyridin-2-yl]oxy}quinolin-2-yl)methanone] the figure was 4.84. Still for that read-out and setting: in the case of `O=C(c1ccc2cc(Oc3ccc(C(F)(F)F)cn3)ccc2n1)N1CCOC(CF)C1` (stereo not shown) [Example 340, [2-(fluoromethyl)morpholin-4-yl](6-{[5-(trifluoromethyl)pyridin-2-yl]oxy}quinolin-2-yl)methanone] it was 5.54.

For `O=C(c1ccc2cc(Oc3ccc(C(F)(F)F)cn3)ccc2n1)N1CCC2(CCC2O)CC1` (stereo not shown) [Example 341, (1-hydroxy-7-azaspiro[3.5]non-7-yl)(6-{[5-(trifluoromethyl)pyridin-2-yl]oxy}quinolin-2-yl)methanone], the pIC50 is 5.37. Consider `O=C(c1ccc2cc(Oc3ccc(C(F)(F)F)cn3)ccc2n1)N1CCc2nc[nH]c(=O)c2C1` [Example 342, 6-[(6-{[5-(trifluoromethyl)pyridin-2-yl]oxy}quinolin-2-yl)carbonyl]-5,6,7,8-tetrahydropyrido[4,3-d]pyrimidin-4(3H)-one], for which the pIC50 is 5.47.

For `O=C1CN(C(=O)c2ccc3cc(Oc4ccc(C(F)(F)F)cn4)ccc3n2)CCCN1` [Example 343, 4-[(6-{[5-(trifluoromethyl)pyridin-2-yl]oxy}quinolin-2-yl)carbonyl]-1,4-diazepan-2-one], the pIC50 was below 4.70. On the same count and under the same terms, in the case of `O=C(c1ccc2cc(Oc3ccc(C(F)(F)F)cn3)ccc2n1)N1CCC2(CC(O)C2)C1` (stereo not shown) [Example 345, (2-hydroxy-6-azaspiro[3.4]oct-6-yl)(6-{[5-(trifluoromethyl)pyridin-2-yl]oxy}quinolin-2-yl)methanone] it was 5.04; in that of `O=C(NCCF)c1ccc2cc(Oc3ccc(C(F)(F)F)cn3)ccc2n1` [Example 346, N-(2-fluoroethyl)-6-{[5-(trifluoromethyl)pyridin-2-yl]oxy}quinoline-2-carboxamide], 5.60. Same read-out and setting: with `O=C(NCC(F)F)c1ccc2cc(Oc3ccc(C(F)(F)F)cn3)ccc2n1` [Example 347, N-(2,2-difluoroethyl)-6-{[5-(trifluoromethyl)pyridin-2-yl]oxy}quinoline-2-carboxamide] the figure was 5.58; with `CS[C@H]1CN(C(=O)c2ccc3cc(Oc4ccc(C(F)(F)F)cn4)ccc3n2)C[C@@H]1O` [Example 348, [(3S,4S)-3-hydroxy-4-(methylsulfanyl)pyrrolidin-1-yl](6-{[5-(trifluoromethyl)pyridin-2-yl]oxy}quinolin-2-yl)methanone], 5.41; with `O=C(NC1CCCS(=O)(=O)C1)c1ccc2cc(Oc3ccc(C(F)(F)F)cn3)ccc2n1` (stereo not shown) [Example 349, N-(1,1-dioxidotetrahydro-2H-thiopyran-3-yl)-6-{[5-(trifluoromethyl)pyridin-2-yl]oxy}quinoline-2-carboxamide], 5.49. Still for that read-out and setting: with `O=C(c1ccc2cc(Oc3ccc(C(F)(F)F)cn3)ccc2n1)N1CCC2(CC1)CC(O)C2` [Example 354, (2-hydroxy-7-azaspiro[3.5]non-7-yl)(6-{[5-(trifluoromethyl)pyridin-2-yl]oxy}quinolin-2-yl)methanone] the figure was 4.91; with `O=C(NCCC(F)(F)F)c1ccc2cc(Oc3ccc(C(F)(F)F)cn3)ccc2n1` [Example 355, 6-{[5-(trifluoromethyl)pyridin-2-yl]oxy}-N-(3,3,3-trifluoropropyl)quinoline-2-carboxamide], 5.90.

Take `C[C@@H]1CN2C[C@@H](F)C[C@@H]2CN1C(=O)c1ccc2cc(Oc3ccc(C(F)(F)F)cn3)ccc2n1` [Example 357, [(3R,7S,8aR)-7-fluoro-3-methylhexahydropyrrolo[1,2-a]pyrazin-2(1H)-yl](6-{[5-(trifluoromethyl)pyridin-2-yl]oxy}quinolin-2-yl)methanone]: the pIC50 is 5.57.

Still in this experiment, the particulars now being: read-out: FRET-Membrane Potential Nav1.7 IC50.
On to `O=C(N[C@@H]1CCNC1)c1ccc2cc(Oc3ccc(C(F)(F)F)cn3)ccc2n1` [Example 331, N-[(3R)-pyrrolidin-3-yl]-6-{[5-(trifluoromethyl)pyridin-2-yl]oxy}quinoline-2-carboxamide], for which the pIC50 was 5.58. The same measure, in the same setting: with `O=C(NCCN1CCCC1=O)c1ccc2cc(Oc3ccc(C(F)(F)F)cn3)ccc2n1` [Example 337, N-[2-(2-oxopyrrolidin-1-yl)ethyl]-6-{[5-(trifluoromethyl)pyridin-2-yl]oxy}quinoline-2-carboxamide] the figure was 5.78. Still for that read-out and setting: with `O=C(c1ccc2cc(Oc3ccc(C(F)(F)F)cn3)ccc2n1)N1CCC2(C1)OCCO2` [Example 352, 1,4-dioxa-7-azaspiro[4.4]non-7-yl(6-{[5-(trifluoromethyl)pyridin-2-yl]oxy}quinolin-2-yl)methanone] the figure was 5.48; with `CON=C1CCN(C(=O)c2ccc3cc(Oc4ccc(C(F)(F)F)cn4)ccc3n2)CC1` [Example 353, [4-(methoxyimino)piperidin-1-yl](6-{[5-(trifluoromethyl)pyridin-2-yl]oxy}quinolin-2-yl)methanone], 5.44; with `O=C(c1ccc2cc(Oc3ccc(C(F)(F)F)cn3)ccc2n1)N1CCN2C[C@@H](F)C[C@@H]2C1` [Example 356, [(7S,8aR)-7-fluorohexahydropyrrolo[1,2-a]pyrazin-2(1H)-yl](6-{[5-(trifluoromethyl)pyridin-2-yl]oxy}quinolin-2-yl)methanone], 5.47.
